Laboratory results: US10525041B2, “Fluoroalkyl-substituted aryltriazole derivatives and uses thereof” (BAYER PHARMA AKTIENGESELLSCHAFT, priority 2016, dated 2020)
pIC50: −log10 of the molar value.

Tests used:
[1] = molecular target: T1, human V2 receptor (Homo sapiens, UniProt P30518); assay: Cellular in vitro assay for vasopressin receptor activity, V2 cell line (CRE-luciferase); format: cell-based; settings: CHO cell line transfected with human V2 receptor; agonist [Arg8]-vasopressin at EC50 concentration, 3 hours; read-out: IC50hV2
T1 construct: expressed in transfected cells; host or cells: CHO K1 (ATCC) line expressing firefly luciferase under a CRE-responsive promoter
Procedure: (§1) B-1. Cellular In Vitro Assay for Determining Vasopressin Receptor Activity
(§2) The identification of agonists and antagonists of the V1a and V2 vasopressin receptors from humans, rats and dogs as well as the quantification of the activity of the compounds of the invention is carried out using recombinant cell lines. These cell lines originally derive from a hamster's ovary epithelial cell (Chinese Hamster Ovary, CHO K1, ATCC: American Type Culture Collection, Manassas, Va. 20108, USA). The test cell lines constitutively express the human, rat or dog V1a or V2 receptors. In case of the Gαq-coupled V1a receptors, cells are also stably transfected with a modified form of the calcium-sensitive photoproteins aequorin (human and rat V1a) or obelin (dog V1a), which, after reconstitution with the cofactor coelenterazine, emit light when there are increases in free calcium concentrations [Rizzuto R, Simpson A W, Brini M, Pozzan T, Nature 358, 325-327 (1992); Illarionov B A, Bondar V S, Illarionova V A, Vysotski E S, Gene 153 (2), 273-274 (1995)]. The resulting vasopressin receptor cells react to stimulation of the recombinantly expressed V1a receptors by intracellular release of calcium ions, which can be quantified by the resulting photoprotein luminescence. The Gs-coupled V2 receptors are stably transfected into cell lines expressing the gene for firefly luciferase under control of a CRE-responsible promoter. Activation of V2 receptors induces the activation of the CRE-responsive promoter via cAMP increase, thereby inducing the expression of firefly luciferase. The light emitted by photoproteins of V1a cell lines as well as the light emitted by firefly luciferase of V2 cell lines corresponds to the activation or inhibition of the respective vasopressin receptor. The bioluminescence of the cell lines is detected using a suitable luminometer [Milligan G, Marshall F, Rees S, Trends in Pharmacological Sciences 17, 235-237 (1996)].
Vasopressin V2 Receptor Cell Lines:
On the day before the assay, the cells are plated out in culture medium (DMEM/F12, 2% FCS, 2 mM glutamine, 10 mM HEPES) in 384-well microtiter plates and kept in a cell incubator (96% humidity, 5% v/v CO2, 37° C.). On the day of the assay, test compounds in various concentrations and the agonist [Arg^8]-vasopressin at EC50 concentration are added together to the wells, and plates are incubated for 3 hours in a cell incubator. Upon addition of the cell lysis reagent Triton™ and the substrate luciferin, luminescence of firefly luciferase is measured in a luminometer.
(§3) Table 1A below lists individual IC50 values for the compounds of the invention (including racemic mixtures as well as separated enantiomers) that were obtained from cell lines transfected with the human V1a or V2 receptor: […]

[2] = molecular target: T2, human V1a receptor (Homo sapiens, UniProt P37288); assay: Cellular in vitro assay for vasopressin receptor activity, V1a cell line (aequorin luminescence); format: cell-based; settings: for pIC50: CHO cell line transfected with human V1a receptor, agonist [Arg8]-vasopressin at EC50 concentration, read-out: IC50hV1a; for ratio IC50 hV2/hV1a: ratio of the IC50 on human V2 to the IC50 on human V1a
T2 construct: expressed in transfected cells; host or cells: CHO K1 (ATCC), also stably transfected with a modified aequorin
Procedure: as §1, §2
Vasopressin V1a Receptor Cell Lines:
On the day before the assay, the cells are plated out in culture medium (DMEM/F12, 2% FCS, 2 mM glutamine, 10 mM HEPES, 5 μg/ml coelenterazine) in 384-well microtiter plates and kept in a cell incubator (96% humidity, 5% v/v CO2, 37° C.). On the day of the assay, test compounds in various concentrations are placed for 10 minutes in the wells of the microtiter plate before the agonist [Arg^8]-vasopressin at EC50 concentration is added. The resulting light signal is measured immediately in a luminometer.
as §3

T1 sequence (P30518 whole entry): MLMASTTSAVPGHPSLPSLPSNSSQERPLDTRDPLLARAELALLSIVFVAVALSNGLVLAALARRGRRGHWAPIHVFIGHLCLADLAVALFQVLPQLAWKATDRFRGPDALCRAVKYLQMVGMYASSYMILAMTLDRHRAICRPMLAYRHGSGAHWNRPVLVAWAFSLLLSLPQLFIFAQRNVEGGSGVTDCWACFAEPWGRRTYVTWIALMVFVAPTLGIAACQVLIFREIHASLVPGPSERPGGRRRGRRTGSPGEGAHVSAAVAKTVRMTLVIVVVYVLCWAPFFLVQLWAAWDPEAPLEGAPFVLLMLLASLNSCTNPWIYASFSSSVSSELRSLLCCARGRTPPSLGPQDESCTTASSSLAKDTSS
T2 sequence (P37288 whole entry): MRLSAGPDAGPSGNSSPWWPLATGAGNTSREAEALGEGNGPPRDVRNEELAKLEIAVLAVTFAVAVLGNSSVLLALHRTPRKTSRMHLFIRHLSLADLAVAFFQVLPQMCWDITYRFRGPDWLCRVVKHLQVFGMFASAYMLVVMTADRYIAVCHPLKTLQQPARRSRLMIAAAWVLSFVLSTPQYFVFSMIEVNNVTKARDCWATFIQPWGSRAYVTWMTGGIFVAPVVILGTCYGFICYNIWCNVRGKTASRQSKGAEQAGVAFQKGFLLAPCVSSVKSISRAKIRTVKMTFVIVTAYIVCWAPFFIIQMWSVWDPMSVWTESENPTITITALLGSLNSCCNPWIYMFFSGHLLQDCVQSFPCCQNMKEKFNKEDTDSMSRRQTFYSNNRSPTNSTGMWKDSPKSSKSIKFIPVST

Q: What does the source list for `CC(F)c1nc(Cn2nc(-c3ccc(Cl)cc3)n(C[C@H](O)C(F)(F)F)c2=O)nn1-c1ccccc1OC(F)(F)F` (single isomer, unassigned) [Example 26]?
A: pIC50 [1]: 7.76; pIC50 [2]: 8.52; ratio IC50 hV2/hV1a [2]: 5.8

Q: With `Cc1cccc(C)c1-n1nc(Cn2nc(-c3ccc(Cl)cc3)n(C[C@H](O)C(F)(F)F)c2=O)nc1C(C)(F)F` [Example 71, 5-(4-Chlorophenyl)-2-{[5-(1,1-difluoroethyl)-1-(2,6-dimethylphenyl)-1H-1,2,4-triazol-3-yl]methyl}-4-[(2S)-3,3,3-trifluoro-2-hydroxypropyl]-2,4-dihydro-3H-1,2,4-triazol-3-one] as the compound, how does the pIC50 [1] read?
A: 8.37

Q: What about the pIC50 [2] of the same compound?
A: 8.28

Q: What about the “ratio IC50 hV2/hV1a” value [2] of the same compound?
A: 0.8

Q: What does the source list for `CC(F)c1nc(Cn2nc(-c3ccc(Cl)cc3)n(C[C@H](O)C(F)(F)F)c2=O)nn1-c1ccccc1C#N` (mixture of isomers) [Example 38, 2-{3-({3-(4-Chlorophenyl)-5-oxo-4-[(2S)-3,3,3-trifluoro-2-hydroxypropyl]-4,5-dihydro-1H-1,2,4-triazol-1-yl}methyl)-5-[1-fluoroethyl]-1H-1,2,4-triazol-1-yl}benzonitrile]?
A: pIC50 [1]: 6.78; pIC50 [2]: 7.09; ratio IC50 hV2/hV1a [2]: 2.0

Q: With `O=c1n(Cc2nc(C(F)(F)F)n(-c3cccc(F)c3)n2)nc(-c2ccc(Cl)cc2)n1C[C@H](O)C(F)(F)F` [Example 78, 5-(4-Chlorophenyl)-2-{[1-(3-fluorophenyl)-5-(trifluoromethyl)-1H-1,2,4-triazol-3-yl]methyl}-4-[(2S)-3,3,3-trifluoro-2-hydroxypropyl]-2,4-dihydro-3H-1,2,4-triazol-3-one] as the compound, how does the pIC50 [1] read?
A: 8.32

Q: And the pIC50 [2]?
A: 7.30

Q: And the “ratio IC50 hV2/hV1a” value [2]?
A: 0.1

Q: How did the pIC50 [1] turn out when `CC(F)c1nc(Cn2nc(-c3ccc(Cl)cc3)n(C[C@H](O)C(F)(F)F)c2=O)nn1-c1ccccc1C#N` (single isomer, unassigned) [Example 39] was run?
A: 6.58

Q: And the pIC50 [2]?
A: 7.65

Q: And the “ratio IC50 hV2/hV1a” value [2]?
A: 11.7

Q: What does the source list for `NCC(F)(F)c1nc(Cn2nc(-c3ccc(Cl)cc3)n(C[C@H](O)C(F)(F)F)c2=O)nn1-c1ccccc1Cl.O=CO` [Example 76, 2-{[5-(2-Amino-1,1-difluoroethyl)-1-(2-chlorophenyl)-1H-1,2,4-triazol-3-yl]methyl}-5-(4-chlorophenyl)-4-[(2S)-3,3,3-trifluoro-2-hydroxypropyl]-2,4-dihydro-3H-1,2,4-triazol-3-one]?
A: pIC50 [1]: 8.50; pIC50 [2]: 9.04; ratio IC50 hV2/hV1a [2]: 3.5

Q: With `CCc1ccccc1-n1nc(Cn2nc(-c3ccc(Cl)cc3)n(C[C@H](O)C(F)(F)F)c2=O)nc1C(C)F` (single isomer, unassigned) [Example 29] as the compound, how does the pIC50 [1] read?
A: 9.43

Q: What about the pIC50 [2] of the same compound?
A: 9.04

Q: What about the “ratio IC50 hV2/hV1a” value [2] of the same compound?
A: 0.4

Q: Which results are given for `CC(F)c1nc(Cn2nc(-c3ccc(Cl)cc3)n(C[C@H](O)C(F)(F)F)c2=O)nn1-c1ncccc1Cl` (single isomer, unassigned) [Example 20]?
A: pIC50 [1]: 8.23; pIC50 [2]: 8.87; ratio IC50 hV2/hV1a [2]: 4.4

Q: `CC(F)c1nc(Cn2nc(-c3ccc(Cl)cc3)n(C[C@H](O)C(F)(F)F)c2=O)nn1-c1cnccc1C(F)(F)F` (stereo partly drawn) [Example 7, 5-(4-Chlorophenyl)-2-({5-[1-fluoroethyl]-1-[4-(trifluoromethyl)pyridin-3-yl]-1H-1,2,4-triazol-3-yl}methyl)-4-[(2S)-3,3,3-trifluoro-2-hydroxypropyl]-2,4-dihydro-3H-1,2,4-triazol-3-one] was tested. Which pIC50 [1] did it give?
A: 7.90

Q: And the pIC50 [2]?
A: 8.95

Q: And the “ratio IC50 hV2/hV1a” value [2]?
A: 11.1

Q: How did the pIC50 [1] turn out when `CCOc1ccccc1-n1nc(Cn2nc(-c3ccc(Cl)cc3)n(C[C@H](O)C(F)(F)F)c2=O)nc1C(C)F` (mixture of isomers) [Example 42, 5-(4-Chlorophenyl)-2-({1-(2-ethoxyphenyl)-5-[1-fluoroethyl]-1H-1,2,4-triazol-3-yl}methyl)-4-[(2S)-3,3,3-trifluoro-2-hydroxypropyl]-2,4-dihydro-3H-1,2,4-triazol-3-one] was run?
A: 8.31

Q: And the pIC50 [2]?
A: 8.72

Q: And the “ratio IC50 hV2/hV1a” value [2]?
A: 2.6

Q: How did the pIC50 [1] turn out when `CC(F)(F)c1nc(Cn2nc(-c3ccc(Cl)cc3)n(C[C@H](O)C(F)(F)F)c2=O)nn1-c1ccccc1[N+](=O)[O-]` [Example 65, 5-(4-Chlorophenyl)-2-{[5-(1,1-difluoroethyl)-1-(2-nitrophenyl)-1H-1,2,4-triazol-3-yl]methyl}-4-[(2S)-3,3,3-trifluoro-2-hydroxypropyl]-2,4-dihydro-3H-1,2,4-triazol-3-one] was run?
A: 7.94

Q: What about the pIC50 [2] of the same compound?
A: 8.52

Q: And the “ratio IC50 hV2/hV1a” value [2]?
A: 3.7

Q: How did the pIC50 [1] turn out when `CC(F)c1nc(Cn2nc(-c3ccc(Cl)cc3)n(C[C@H](O)C(F)(F)F)c2=O)nn1-c1c(F)cccc1Cl` (mixture of isomers) [Example 44, 2-({1-(2-chloro-6-fluorophenyl)-5-[1-fluoroethyl]-1H-1,2,4-triazol-3-yl}methyl)-5-(4-Chlorophenyl)-4-[(2S)-3,3,3-trifluoro-2-hydroxypropyl]-2,4-dihydro-3H-1,2,4-triazol-3-one] was run?
A: 8.53

Q: And the pIC50 [2]?
A: 8.98

Q: What about the “ratio IC50 hV2/hV1a” value [2] of the same compound?
A: 2.8

Q: How did the pIC50 [1] turn out when `CCc1cccc(C)c1-n1nc(Cn2nc(-c3ccc(Cl)cc3)n(C[C@H](O)C(F)(F)F)c2=O)nc1C(C)F` (mixture of isomers) [Example 48, 5-(4-Chlorophenyl)-2-({1-(2-ethyl-6-methylphenyl)-5-[1-fluoroethyl]-1H-1,2,4-triazol-3-yl}methyl)-4-[(2S)-3,3,3-trifluoro-2-hydroxypropyl]-2,4-dihydro-3H-1,2,4-triazol-3-one] was run?
A: 8.31

Q: What about the pIC50 [2] of the same compound?
A: 7.52

Q: And the “ratio IC50 hV2/hV1a” value [2]?
A: 0.2

Q: With `CSc1ccccc1-n1nc(Cn2nc(-c3ccc(Cl)cc3)n(C[C@H](O)C(F)(F)F)c2=O)nc1C(C)(F)F` [Example 74, 5-(4-Chlorophenyl)-2-({5-(1,1-difluoroethyl)-1-[2-(methylsulfanyl)phenyl]-1H-1,2,4-triazol-3-yl}methyl)-4-[(2S)-3,3,3-trifluoro-2-hydroxypropyl]-2,4-dihydro-3H-1,2,4-triazol-3-one] as the compound, how does the pIC50 [1] read?
A: 9.01

Q: What about the pIC50 [2] of the same compound?
A: 8.85

Q: And the “ratio IC50 hV2/hV1a” value [2]?
A: 0.7

Q: What does the source list for `O=c1n(Cc2nc(C(F)(F)C3CCOCC3)n(-c3ccccc3Cl)n2)nc(-c2ccc(Cl)cc2)n1C[C@H](O)C(F)(F)F` [Example 77, 5-(4-Chlorophenyl)-2-({1-(2-chlorophenyl)-5-[difluoro(tetrahydro-2H-pyran-4-yl)methyl]-1H-1,2,4-triazol-3-yl}methyl)-4-[(2S)-3,3,3-trifluoro-2-hydroxypropyl]-2,4-dihydro-3H-1,2,4-triazol-3-one]?
A: pIC50 [1]: 8.15; pIC50 [2]: 8.85; ratio IC50 hV2/hV1a [2]: 5.0

Q: Which results are given for `Cc1ccccc1-n1nc(Cn2nc(-c3ccc(Cl)cc3)n(C[C@H](O)C(F)(F)F)c2=O)nc1C(C)F` (mixture of isomers) [Example 34, 5-(4-Chlorophenyl)-2-({5-[1-fluoroethyl]-1-(2-methylphenyl)-1H-1,2,4-triazol-3-yl}methyl)-4-[(2S)-3,3,3-trifluoro-2-hydroxypropyl]-2,4-dihydro-3H-1,2,4-triazol-3-one]?
A: pIC50 [1]: 9.08; pIC50 [2]: 9.15; ratio IC50 hV2/hV1a [2]: 1.2

Q: How did the pIC50 [1] turn out when `Cc1ccccc1-n1nc(Cn2nc(-c3ccc(Cl)cc3)n(C[C@H](O)C(F)(F)F)c2=O)nc1C(C)F` (single isomer, unassigned) [Example 35] was run?
A: 9.77

Q: What about the pIC50 [2] of the same compound?
A: 9.44

Q: What about the “ratio IC50 hV2/hV1a” value [2] of the same compound?
A: 0.5

Q: Which results are given for `CSc1ccccc1-n1nc(Cn2nc(-c3ccc(Cl)cc3)n(C[C@H](O)C(F)(F)F)c2=O)nc1C(C)F` (mixture of isomers) [Example 49, 5-(4-Chlorophenyl)-2-({5-[1-fluoroethyl]-1-[2-(methylsulfanyl)phenyl]-1H-1,2,4-triazol-3-yl}methyl)-4-[(2S)-3,3,3-trifluoro-2-hydroxypropyl]-2,4-dihydro-3H-1,2,4-triazol-3-one]?
A: pIC50 [1]: 9.35; pIC50 [2]: 9.07; ratio IC50 hV2/hV1a [2]: 0.5
